# Measurements: US8221738B2, “Method for enhanced uptake of viral vectors in the myocardium” (Celladon Corporation, priority 2008, dated 2012)
# How the values were obtained:
# [1] = Hemodynamic monitoring (mean aortic/arterial pressure) during administration of AAV1/SERCA2a; format: in vivo, Göttingen Minipigs; settings: Groups 3 and 4 (nitroglycerin treated animals); maximum; except one time point in group 4
# Method: (§1) Administration on Day 0 was via the direct coronary infusion procedure described below. Animals from Groups 1-3 were dosed with a total volume of 12 mL of AAV1/SERCA2a solution which was infused at a constant rate of 1.2 mL/minute over a 10 minute period. Animals from Groups 3 and 4 received nitroglycerin as a bolus intracoronary injection immediately prior to administration of AAV1/SERCA2a. Animals from Group 3 were dosed with a total volume of 12 mL of AAV1/SERCA2a and nitroglycerin solution, which was infused at a constant rate of 1.2 mL/minute over a 10 minute period. Animals from Group 4 were dosed with a total volume of 12 mL of normal saline, which was infused at a constant rate of 1.2 mL/minute over a 10 minute period. The direct infusion system is composed of standard (commercially available) components including a conventional guide sheath, 0.014″ guide-wire, a 5F infusion (guide) catheter and two programmable syringe pumps. The direct intracoronary infusion procedure began with introduction of the conventional guide sheath using a common carotid arterial or femoral arterial approach. The Coronary Infusion Catheter (e.g., Cordis Vista Brite Tip Guiding Catheter or similar model appropriate for cannulation of the left main coronary artery) was then placed in the left main coronary artery under fluoroscopic guidance. […]
# SERCA2a mRNA = SERCA2a mRNA expression via RT-PCR in heart sections, 30 day single dose tissue distribution study; format: in vivo, Göttingen Minipigs; settings: nitroglycerin given with AAV1/SERCA2a; especially deep myocardial regions (septum, middle layer anterior wall)
# Method: as §1, with “pumps.” for “pumps. The direct intracoronary infusion procedure began with introduction of the conventional guide sheath using a common carotid arterial or femoral arterial approach. The Coronary Infusion Catheter (e.g., Cordis Vista Brite Tip Guiding Catheter or similar model appropriate for cannulation of the left main coronary artery) was then placed in the left main coronary artery under fluoroscopic guidance.”
# Total mRNA and protein expression in the left ventricle of individual sections was calculated (sum of sections 1-10 in FIG. 1), and the septum (section #5 in FIG. 1), and the middle layer anterior wall (section #6 in FIG. 1) were also analyzed separately, as these regions represent deep myocardium, furthest from the site of infusion. […]
compound,measurement,setting,value
"O=[N+]([O-])OCC(CO[N+](=O)[O-])O[N+](=O)[O-] [nitroglycerin, glyceryl trinitrate]",decrease in Mean arterial pressure (MAP) compared to baseline,[1],≤ 6 mm Hg
same,vector uptake,SERCA2a mRNA,enhanced
